Source: US4996227A, “3-(heteroarylalkyene)- and 3-(arylalkylene)-2,4(3H,5H)-heterocyclic diones as cancer chemotherapy drugs” (priority 1989, dated 1991)

Experiments:
healthy mice [1] = experiment: Toxicology testing in healthy mice: pathological evaluation; format: in vivo
Protocol: (§1) The purpose of this example was to determine approximate toxicity of the compound 3[(5-methyl-2-thienyl) methylene]-2,4(3H,5H)-furandione in healthy mice. The in vivo concentrations employed in the example were selected by using the in vitro results in the Human Tumor Stem Cell Assay as a guide. The compound was given to the mice by means of intra-peritoneal injection. In addition to a control group which was injected with the appropriate carrier solution without drug, three test groups with calculated plasma concentrations of 1, 10 and 100 mcg/ml (low, medium and high concentrations) were prepared. Based upon the results from Table 1, the three test groups represent low, medium and high concentrations of drug dosages. The highest concentration of 100 mcg/ml is about 10 times the predicted effective dose (in vivo) of tumoricidal activity. Each group contained eight animals. Blood was extracted from four animals in each group two days after the intraperitoneal injection and routine hematology (i.e., a hemoglobin concentration, a white blood cell count, and a neutrophil count) procedures were performed.
As previously stated, half of the animals in each group were sacrificed after one week (Day 7), and the remaining animals were sacrificed after two weeks (Day 14). […]

[2] = system: K562 cells (human chronic granulocytic leukemia); experiment: K562 human leukemia cell suspension culture, cell concentration; format: cell-based; details: 1 ug/ml
Protocol: In this example, 1 mcg/ml of 3[[5-methyl-2-thienyl]methylene]2, 4 (3H, 5H) furandione was compared to 1 mcg/ml of 3[[3-methyl-2-thienyl]methylene]2, 4 (3H, 5H) furandione.
A conventionally available cell line (K562) derived from human chronic granulocytic leukemia was employed in an in vitro procedure. The leukemia cell line was cultured in a suspension of RPMI 1640 plus 10% fetal calf serum. All initial cell concentrations for the cultures were 0.65 times 10^5 cells/ml. Four separate suspension cultures were employed with the first suspension culture having no additions. The second suspension culture included 100 microliters of the solvent DMSO per 10 ml of culture (control). The third culture contained 1 ug/ml of 3[[5-methyl-2 thienyl]methylene]-2, 4 (3H, 5H) furandione and the fourth culture contained 1 ug/ml of 3[[3-methyl-2-thienyl]methylene]-2, 4 (3H, 5H) furandione. The cell concentration of each of the four cultures was determined. After three days and again after five days.

healthy mice [3] = experiment: Toxicology testing in healthy mice: hematology; format: in vivo; details: for Absolute Neutrophils / Hemoglobin / WBC: i.p.
Protocol: as §1
Half of the animals in each group were sacrificed after one week (Day 7), and the remaining animals in each group were sacrificed after two weeks (Day 14). Routine hematology was performed at the time of sacrifice.

[4] = high, 100 mcg/ml calculated plasma, Day 2
[5] = high, 100 mcg/ml calculated plasma, Day 7
[6] = high, 100 mcg/ml calculated plasma, Day 14
[7] = low, 1 mcg/ml calculated plasma, Day 2
[8] = low, 1 mcg/ml calculated plasma, Day 7
[9] = low, 1 mcg/ml calculated plasma, Day 14
[10] = medium, 10 mcg/ml calculated plasma, Day 2
[11] = medium, 10 mcg/ml calculated plasma, Day 7
[12] = medium, 10 mcg/ml calculated plasma, Day 14

## Cc1ccc(C=C2C(=O)COC2=O)s1 [Compound 4, 3[(5-methyl-2-thienyl)methylene]2,4(3H,5H)-furandione]
Healthy mice [1]; all dose groups, 7 or 14 days
  pathology of organs, bone, brain, etc.: not remarkably altered within the testing period
Healthy mice [1]; high concentrations
  pathology of organs, bone, etc., vs low concentration and control groups: do not appear to affect any of the organs, bone, etc. of the test animals to any lesser or greater degree than the low concentration drug group or the control group
[2]
  effect on leukemia culture: very effective against the leukemia culture as demonstrated by the remarkable decrease in cell concentration
[2]; 3 Days
  Cell Conc.: 70000 mL⁻¹
[2]; 5 Days
  Cell Conc.: 50000 mL⁻¹
Healthy mice [3]; after one week
  absolute neutrophil count, change: significant decrease in the absolute neutrophil count after one week, indicating suppression of bone marrow
Healthy mice [3]; all groups
  total white blood cell count, change: slightly decreased from Day 2 to Day 7, the count increased in all groups from Day 7 to Day 14
Healthy mice [3]; all test groups, 14-day test period
  hemoglobin levels, change: no significant decreases in hemoglobin levels
Healthy mice [3]; at drug level predicted by the in vitro assay
  myelosuppression in vivo: some myelosuppression in vivo
Healthy mice [3]; blood smears
  platelet count, change: platelet count was not significantly decreased
Healthy mice [3]; [4]
  Absolute Neutrophils: 5224 cells/ul
  Hemoglobin: 13.2 g/100 ml
  WBC: 9594 Cells/ul
Healthy mice [3]; [5]
  Hemoglobin: 13.6 g/100 ml
  WBC: 5775 Cells/ul
Healthy mice [3]; high, 100 mcg/ml calculated plasma, Day 7 (text SD=622), 4 (3H, 5H) FURANDIONE
  Absolute Neutrophils: 1167 cells/ul
Healthy mice [3]; high, 100 mcg/ml calculated plasma, Day 7 (text SD=622), listed as tested furandione compound
  Absolute Neutrophils: 1,167 cells/ul
Healthy mice [3]; [6]
  Absolute Neutrophils: 2025 cells/ul
  Hemoglobin: 13.9 g/100 ml
  WBC: 12,175 Cells/ul
Healthy mice [3]; [7]
  Absolute Neutrophils: 2869 cells/ul
  Hemoglobin: 13.7 g/100 ml
  WBC: 7000 Cells/ul
Healthy mice [3]; [8]
  Hemoglobin: 14.25 g/100 ml
  WBC: 6562 Cells/ul
Healthy mice [3]; low, 1 mcg/ml calculated plasma, Day 7 (text SD=942), 4 (3H, 5H) FURANDIONE
  Absolute Neutrophils: 1731 cells/ul
Healthy mice [3]; low, 1 mcg/ml calculated plasma, Day 7 (text SD=942), listed as tested furandione compound
  Absolute Neutrophils: 1,731 cells/ul
Healthy mice [3]; [9]
  Hemoglobin: 13.6 g/100 ml
  WBC: 9675 Cells/ul
Healthy mice [3]; low, 1 mcg/ml calculated plasma, Day 14, three animals
  Absolute Neutrophils: 2183 cells/ul
Healthy mice [3]; low, 1 mcg/ml, Day 7
  neutrophil difference vs control: no significant difference between the control and the low concentration group
Healthy mice [3]; [10]
  Absolute Neutrophils: 3946 cells/ul
  Hemoglobin: 13.6 g/100 ml
  WBC: 7787 Cells/ul
Healthy mice [3]; [11]
  Hemoglobin: 13.9 g/100 ml
  WBC: 5812 Cells/ul
Healthy mice [3]; medium, 10 mcg/ml calculated plasma, Day 7 (text SD=492), 4 (3H, 5H) FURANDIONE
  Absolute Neutrophils: 1009 cells/ul
Healthy mice [3]; medium, 10 mcg/ml calculated plasma, Day 7 (text SD=492), listed as tested furandione compound
  Absolute Neutrophils: 1,009 cells/ul
Healthy mice [3]; [12]
  Hemoglobin: 13.6 g/100 ml
  WBC: 8700 Cells/ul
Healthy mice [3]; medium, 10 mcg/ml calculated plasma, Day 14, three animals
  Absolute Neutrophils: 1256 cells/ul
Healthy mice [3]; medium, 10 mcg/ml, Day 7
  P, neutrophil difference vs control: < 0.05
